In patent US12708644B2, “Dendritic cell vaccination sequential to chemotherapy” (Excoso a.s., priority 2018, dated 2026):
Read-outs that look alike come from different tables or passages of the source. Marks after values point to notes of the source that are not given here.

Legend:
[1] = test system: first-line patients of ovarian carcinoma; details: cited from earlier work; for OS HR: compared to patients not treated with bevacizumab; for PFS HR: continuous after combination with carboplatin/paclitaxel
[2] = test system: women with newly diagnosed epithelial ovarian carcinoma
Method: The study was conducted as an open label, multicenter, three-arm phase II clinical trial in women with newly diagnosed epithelial ovarian carcinoma, who have undergone debulking surgery.
The planned number of chemotherapy cycles was 6 in all treatment groups (FIG. 1).
Results were calculated either by using as beginning of the trial period the time of first treatment or the time of randomization. Two pre-planned per protocol interim analyses of PFS and OS from the date of randomization were performed first at 6 months and second at 12 months after the last dose of standard of care chemotherapy of the last enrolled patient. […]
A log-rank test was used for comparing the PFS and OS distributions of the two treatment groups: • H01: PFS/OS group A=PFS/OS group C vs H11: PFS/OS group C≠PFS/OS group A, • H02: PFS/OS group B=PFS/OS group C vs H12: PFS/OS group C≠PFS/OS group B.
The hazard ratio (HR) was calculated using Cox proportional hazard regression. The estimate for the HR was based on fitting a proportional hazards regression model: λ(t)=λ0(t)*exp(βz), • wherein λ0(t) is the baseline hazard function for group C, λ(t) is the hazard function for group A/group B, z is a binary covariate (being 1 for group A/group B and 0 for group C), and exp(β) is the HR. Efficacy in the ITT Population

[3] = bevacizumab 7.5 mg/kg IV q3w, 12 months
[4] = bevacizumab 15 mg/kg IV q3w, 15 months
[5] = treatment group C (standard of care chemotherapy alone), shorter reporting time period

| Substance | OS HR [1, 3] | OS HR ([1]; bevacizumab 7.5 mg/kg IV q3w, 12 months, listed as Bevacizumab) | PFS HR [1, 3] | OS HR [1, 4] | OS HR ([1]; bevacizumab 15 mg/kg IV q3w, 15 months, listed as Bevacizumab) | PFS HR [1, 4] | Safety ([1]; side effects e.g. gastrointestinal perforation and fistulae, wound healing complications, hypertension, thromboembolism or haemorrhage, congestive heart failure, neutropenia and infections) | patients who have died ([2]; standard of care arm (group C), per-protocol population, more than 3.5 years after inclusion) | SAEs reported [2, 5] | patients with SAEs [2, 5] |
| --- | --- | --- | --- | --- | --- | --- | --- | --- | --- | --- |
| bevacizumab | 0.99 | 0.99^c | 0.86^c | 0.88 | 0.88^c | 0.7^c | an increased risk for | – | – | – |
| carboplatin and paclitaxel | – | – | – | – | – | – | – | about 40% | 14 | 9 |
